Experimental data from patent US8632824B2, “Process of obtaining thylakoids from photosynthetic organisms; plant fractions obtained from the process; pure thylakoids; and methods of use of thylakoids as ROS scavengers, photo-protectors, biosensors, biofilters and bioreactors” (Purgenesis Technologies, Inc., priority 2000, dated 2014).

Key:
[1] = test system: IMR-32 cells; experiment: Protection of IMR-32 cells against TBHP oxidative stress (Hoechst DNA survival assay); type: cell-based, Human; conditions: for apoptosis produced by TBHP: 1000 cells per well, 1 hour
Excerpt: Human neuroblastoma cell line (IMR-32), which is known to respond to oxidative stress by apoptosis (Kim et al, 1999), was used as an in vitro cell model. IMR32 cells are particularly sensitive to ROS and other toxicants because their p53 gene product is sequestered in the cytoplasm.
Tert-butyl hydroperoxide (TBHP) was used as an oxidative stress-inducing agent. […] This will allow comparisons if studies relative to more generalized oxidative stress conditions (like the ones found in many neurodegenerative diseases) have to be performed on different cells phenotypes.
Experiments were done using 1000 IMR-32 cells per well, for I hour of incubation. TBHP 50, 75 and 100 μM produced 78%, 87% and 87% apoptosis. TBHP 50 μM was selected to induce apoptosis in the other experiments.
Different dilutions were used on IMR-32 cells along with TBHP. A mother solution 1:10 was constituted, starting from the lyophilized thylakoid fraction, in propylene glycol. Unless otherwise specified, the mentioned dilutions are dilutions of this mother solution. […] The latter dilution was adopted for further experimentation.
IMR-32 Cells were grown in MEM supplemented with 10% FBS at 37° C. in a humidified atmosphere of 95% air and 5% CO2. The cells were seeded at a density of 1×10^4 cells/T25 Falcon tissue culture flasks and subcultured twice weekly. 48 h old cultures were used in all the experiments.
1000 or 3000 cells/well/100 uL were seeded in 96 well (Linbro flat bottom) plates in all the wells except well No. 12 of all the rows. After 24 h the cells were washed 2 times with 250 ul of PBS (pH 7.2) and 32 wells each were treated respectively with 100 and 200 uM solutions of TBHP (70% aqueous solution from Sigma Chemical Company) for 1 h. After 1 h the cells were gently washed 2 times with PBS before adding fresh growth medium. After 24 h the cell survival was assayed by a sensitive fluorimetric assay based on DNA binding fluorescent dye Hoechst by the following procedure. The test measures the total DNA of the population, a measurement which closely correlates with cell number. The medium was aspirated by gentle suction. Cells were rinsed with 250 ul PBS. PBS was aspirated with gentle suction. The rinse step was repeated. 100 uL lysis buffer (0.02% SDS in 1×SSC) was added in every well except the ones for DNA standard and Blank in row 12. The plate was incubated at 37° C. for 1 h with occasional swirling. 100 uL of 40 ug/mL of DNA was added to the DNA wells and 100 uL of 1×SSC buffer was added to the wells that were treated as Blank. 100 uL of 40 ug/ml of Hoechst 33258 in 1×SSC buffer was added to every well, and the plate was covered with Aluminum foil to protect it from light. The plate was agitated gently for 5 minutes and fluorescence was read at excitation wavelength 355 nm and emission wavelength 460 nm.
CT untreated=100%: survival after TBHP: 42%, dead cells: 100−42=58%; population size after PC: 88% difference from CT: 100−88=12% Expected population size after TBHP+PC: 100−58−12=30%. Recovered survival: 60% Survival gain in %: 60−30=30 Protection exerted: 30:60×100=50%
FRTS/1 was used as pre-treatment, co-treatment and post-treatment with the oxidative insult.
The <<Cell damages TBHP/CT>> represents the damages caused by the oxidant calculated as a percentage from the survival of untreated controls. […] The <<Expected survival>> is 100-total expected decrease. […] The <<protection exerted by PC>> is calculated as reported above.

[2] = test system: IMR-32 cells; experiment: Estimation of apoptosis in IMR-32 cells by LDH assay; conditions: lysed cells = 100%
Experimental: For this experiment IMR-32 cells were grown in MEM medium without I-Glutamine, Phenolphtaleine and sodium pyruvate 3000 IMR-32 cell/well seeded in 96 well plates. […] After 1 hour the cells were washed with PBS two times and PBS was replaced with the growth medium. […] Two rows were left untreated as Control. The LDH activity was measured by Lactate Dehydrogenase Assay Kit provided by Sigma Diagnostics. The calorimetric assay measures the residual pyruvate (substrate of the enzymatic reaction). The basal activity present in the medium alone (in the absence of Cells) was considered 0% and was systematically subtracted from each experimental value. Control untreated cells in two rows were lysed with Triton X-100 (0.02%) and were treated as samples with 100% LDH release.
The assay used in the present study measures the residual level of enzyme substrate (pyruvate) using a calorimetric reaction. The more the substrate in the medium, the less enzyme released. Medium cells was taken as 0% enzyme activity released, and lysed cells in the medium as 100% released.

[3] = Oxidation of PLPC micelles by peroxyl radicals from AAPH (absorbance at 234 nm); type: biochemical; conditions: FIG. 10
Excerpt: The peroxidation of unsaturated lipid moieties (reactions 1-3) causes changes in their structure which eventually changes the physical properties of biological membranes. During the lipid peroxidation a conjugated diene group is formed (see LOOH in reaction 3) which has an UV/Vis absorption maximum at λmax=234 nm (ε=29,500 M^−1cm^−1) and this allows a quantification of the oxidation product formed. To obtain quantitative data the lipid peroxidation has to be initiated in a controlled manner (reaction 1). Often azo initiators, which produce a well-defined flux of ROO. in aqueous, aerated solution, are employed to study lipid oxidation in in vitro experiments. […]
Depending on possible reaction pathways of the antioxidant used the concentration time profiles of the detected LOOH display certain characteristics. By using an azo initiator as peroxyl radical source the amount of ROO. generated can be calculated and it is possible to determine the amount of lipids oxidized from the 234 nm absorption of the conjugated diene moiety. Also the amount of ROO. trapped during the lag phase can be determined.
From the duration of a possible lag phase during lipid peroxidation experiments (FIG. 9) the amount of “trapped” radicals can be calculated. […]
The reactions were monitored on a spectrophotometer at 37° C. for 10 h. […]

| SMILES | apoptosis produced by TBHP ([1]; TBHP 50 μM) | apoptosis produced by TBHP ([1]; TBHP 75 μM) | apoptosis produced by TBHP ([1]; TBHP 100 μM) | Cell damages TBHP/CT ([1]; co-treatment experiment, TBHP 25 uM alone) | Cell damages TBHP/CT ([1]; co-treatment experiment, TBHP 50 uM alone) | Cell damages TBHP/CT ([1]; post-treatment experiment, TBHP 25 uM alone) | Cell damages TBHP/CT ([1]; post-treatment experiment, TBHP 50 uM alone) | Cell damages TBHP/CT ([1]; pre-treatment experiment, TBHP 25 uM alone) | Cell damages TBHP/CT ([1]; pre-treatment experiment, TBHP 50 uM alone) | survival after TBHP ([1]; worked calculation example, CT untreated=100%) | LDH release/TBHP ([2]; TBHP 25 uM alone) | LDH release/TBHP ([2]; TBHP 50 uM alone) | oxidation kinetics of lipids compared to Trolox [3] |
| --- | --- | --- | --- | --- | --- | --- | --- | --- | --- | --- | --- | --- | --- |
| CC(C)(C)OO [TBHP, Tert-butyl hydroperoxide] | 78% | 87% | 87% | 39% | 67% | 38% | 66% | 58% | 70% | 42% | 64% | 92% | – |
| CC1=C(/C=C/C(C)=C/C=C/C(C)=C/C=C/C=C(C)/C=C/C=C(C)/C=C/C2=C(C)CCCC2(C)C)C(C)(C)CCC1 [β-carotene] | – | – | – | – | – | – | – | – | – | – | – | – | an antioxidant but with no lag phase |
